The results in this text go back to patent US20230219965A1 (KSQ Therapeutics, Inc., priority 2020, published 2023).

Bounds are passed on as bounds.

Sequence of USP1/UAF1 enzyme (O94782 whole entry): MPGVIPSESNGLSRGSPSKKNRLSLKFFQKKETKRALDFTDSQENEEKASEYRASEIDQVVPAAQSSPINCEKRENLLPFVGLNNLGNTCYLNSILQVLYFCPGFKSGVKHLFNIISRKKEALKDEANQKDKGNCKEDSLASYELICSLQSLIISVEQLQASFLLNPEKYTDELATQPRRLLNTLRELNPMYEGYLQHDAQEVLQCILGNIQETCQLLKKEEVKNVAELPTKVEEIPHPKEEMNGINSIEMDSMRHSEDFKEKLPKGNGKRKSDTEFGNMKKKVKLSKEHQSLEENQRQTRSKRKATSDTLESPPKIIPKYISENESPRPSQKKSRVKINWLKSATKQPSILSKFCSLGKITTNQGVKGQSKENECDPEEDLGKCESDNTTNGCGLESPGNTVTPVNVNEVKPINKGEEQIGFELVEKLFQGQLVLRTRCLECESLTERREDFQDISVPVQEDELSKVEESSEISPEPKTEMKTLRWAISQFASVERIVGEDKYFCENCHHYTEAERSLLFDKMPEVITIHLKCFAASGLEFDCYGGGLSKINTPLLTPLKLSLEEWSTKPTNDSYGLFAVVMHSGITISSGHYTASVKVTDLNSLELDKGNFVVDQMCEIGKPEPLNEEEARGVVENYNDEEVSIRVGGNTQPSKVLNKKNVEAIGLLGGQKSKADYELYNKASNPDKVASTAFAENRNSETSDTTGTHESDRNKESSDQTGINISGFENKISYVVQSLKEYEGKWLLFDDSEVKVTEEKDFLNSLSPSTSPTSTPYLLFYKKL
Sequence of USP1/UAF1 enzyme (Q8TAF3 whole entry partner): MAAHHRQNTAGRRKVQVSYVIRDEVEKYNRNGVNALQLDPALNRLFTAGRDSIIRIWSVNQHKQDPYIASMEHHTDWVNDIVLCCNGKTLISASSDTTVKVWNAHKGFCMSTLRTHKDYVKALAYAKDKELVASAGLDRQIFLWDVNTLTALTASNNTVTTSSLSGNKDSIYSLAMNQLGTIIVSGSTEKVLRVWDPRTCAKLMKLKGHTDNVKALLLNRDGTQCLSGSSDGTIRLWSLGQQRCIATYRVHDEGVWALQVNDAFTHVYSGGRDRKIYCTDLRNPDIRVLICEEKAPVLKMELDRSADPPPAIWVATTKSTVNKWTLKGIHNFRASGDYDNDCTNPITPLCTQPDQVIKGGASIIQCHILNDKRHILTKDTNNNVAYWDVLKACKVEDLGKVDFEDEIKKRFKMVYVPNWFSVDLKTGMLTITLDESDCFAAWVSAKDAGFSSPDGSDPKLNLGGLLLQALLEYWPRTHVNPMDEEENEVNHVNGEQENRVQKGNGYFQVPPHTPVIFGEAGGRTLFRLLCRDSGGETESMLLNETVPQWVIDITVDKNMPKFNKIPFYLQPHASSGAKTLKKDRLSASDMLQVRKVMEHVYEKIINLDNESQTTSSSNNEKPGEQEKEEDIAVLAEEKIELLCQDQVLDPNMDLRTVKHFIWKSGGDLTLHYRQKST

The assay deals with USP1/UAF1 enzyme (Homo sapiens, UniProt O94782). As to the kind of experiment: USP1/UAF1 deubiquitination assay (ubiquitin-rhodamine 110 substrate). Type of assay: biochemical. Conditions: read-out: USP1 IC50 (Ub-Rho). On the procedure:
Certain Compounds of the Disclosure were assessed for USP1/UAF1 activity in a Ubiquitin Rhodamine assay modified from those described previously.
Deubiquitinase activity was measured using ubiquitin-rhodamine 110 as a substrate. Cleavage of the amide bond between rhodamine and the c-terminal glycine of ubiquitin yields an increase in fluorescence signal. The assay was conducted in 20 μl total volume of assay buffer (50 mM Tris-HCl, pH 7.8, 0.5 mM EDTA, 0.01% Bovine Serum Albumin, 1 mM DTT, 0.01% Tween-20), and 0.05 nM USP1/UAF1 enzyme. Reaction was initiated by addition of 150 nM Ubiquitin-rhodamine (Boston Biochem) substrate.
Compounds of the Disclosure, dissolved in DMSO were tested in dose response format, beginning at […].
The example compounds listed below were added to enzyme/assay buffer mix and incubated 10 min. Substrate mix was added, and reaction mix was read in kinetic mode for 30 min at Ex480/Em540 and IC50 response curves were plotted.
Data for all assay formats was calculated as percent inhibition compared with control wells. Percent inhibition was calculated using the following equation: % inhibition=100×[1−(X−min)/(max−min)], where X is the raw data readout, min is the average of the no enzyme control wells (n=32), max is the average of the DMSO control well (n=32). IC50 values were calculated using the standard four parameter curve fitting algorithm in either Prism GraphPad (La Jolla, Calif.) software, or Collaborative Drug Discovery (Burlingame, Calif.) CDD Vault. See Chem. Biol. 20(1): 55-62 (Jan. 24, 2013); Bioorg. Med. Chem. Lett. 23(20): 5660-5666 (Oct. 15, 2013).
Usually IC50 stands for the concentration that gives 50% inhibition. In the case of `COc1cccnc1-c1ccc(N[C@@H]2CCCn3nc(-c4c(OC)ncnc4C4CC4)cc32)cc1F` (single isomer, unassigned) [Example 251], the IC50 is more than 500 nM.
On to `COc1cccnc1-c1ccc(N[C@H]2CCCn3nc(-c4c(OC)ncnc4C4CC4)cc32)cc1F` (single isomer, unassigned) [Example 252], for which the IC50 lay within 100 to 500 nM.
As for `COc1cccnc1-c1ccc(N[C@@H]2CCCn3nc(-c4c(OC)ncnc4C4CC4)cc32)cc1Cl` (single isomer, unassigned) [Example 253], the IC50 lay in the range of 100 to 500 nM.
Next, `COc1cccnc1-c1ccc(N[C@H]2CCCn3nc(-c4c(OC)ncnc4C4CC4)cc32)cc1Cl` (single isomer, unassigned) [Example 254]: 100 to 500 nM; `COc1ncnc(C2CC2)c1-c1cc2n(n1)CCC(=O)N2C(C)c1ccc(-c2nc(C(F)(F)F)cn2C)cc1` (centres unmarked) [Example 3, 2-(4-cyclopropyl-6-methoxypyrimidin-5-yl)-4-(1-(4-(1-methyl-4-(trifluoromethyl)-1H-imidazol-2-yl)phenyl)ethyl)-6,7-dihy dropyrazolo[1,5-a]pyrimidin-5(4H)-one]: 100 to 500 nM.
Regarding `CCn1cc(C(F)(F)F)nc1-c1ccc(CN2C(=O)CCn3nc(-c4c(OC)ncnc4OC)cc32)cc1` [Example 5, 2-(4,6-dimethoxypyrimidin-5-yl)-4-(4-(1-ethyl-4-(trifluoromethyl)-1H-imidazol-2-yl)benzyl)-6,7-dihydropyrazolo[1,5-a]pyrimidin-5(4H)-one], the IC50 fell in the range of 100 to 500 nM.
`CCn1nc(-c2ccc(CN3C(=O)CCn4nc(-c5c(C)cnn5C(C)C)cc43)cc2)nc1C(F)(F)F` [Example 15, 4-(4-(1-ethyl-5-(trifluoromethyl)-1H-1,2,4-triazol-3-yl)benzyl)-2-(1-isopropyl-4-methyl-1H-pyrazol-5-yl)-6,7-dihydropyrazolo[1,5-a]pyrimidin-5(4H)-one]: the IC50 is more than 500 nM.
With `CCn1ncc(Cl)c1-c1cc2n(n1)CCC(=O)N2Cc1ccc(-c2nc(C(F)(F)F)cn2C)c(F)c1` [Example 17, 2-(4-chloro-1-ethyl-1H-pyrazol-5-yl)-4-(3-fluoro-4-(1-methyl-4-(trifluoromethyl)-1H-imidazol-2-yl)benzyl)-6,7-dihydropyrazolo[1,5-a]pyrimidin-5(4H)-one], the IC50 is less than 100 nM.
Next, `CC(C)n1ncc(F)c1-c1cc2n(n1)CCC(=O)N2Cc1ccc(-c2nc(C(F)(F)F)cn2C)c(F)c1` [Example 21, 2-(4-fluoro-1-isopropyl-1H-pyrazol-5-yl)-4-(3-fluoro-4-(1-methyl-4-(trifluoromethyl)-1H-imidazol-2-yl)benzyl)-6,7-dihydropyrazolo[1,5-a]pyrimidin-5(4H)-one]: 100 to 500 nM; `CCn1cc(C(F)(F)F)nc1-c1ccc(CN2C(=O)CCn3nc(-c4cccc5c4N(C)CC5)cc32)cc1` [Example 23, 4-(4-(1-ethyl-4-(trifluoromethyl)-1H-imidazol-2-yl)benzyl)-2-(1-methylindolin-7-yl)-6,7-dihydropyrazolo[1,5-a]pyrimidin-5(4H)-one]: 100 to 500 nM.
As to `COc1ncnc(C)c1-c1cc2n(n1)CCCN2Cc1ccc(-n2nc(C(F)(F)F)cc2C)cc1` [Example 26], the IC50 was 100 to 500 nM.
`CCn1cc(C(F)(F)F)nc1-c1ccc(CN2C(=O)CCn3nc(-c4c(OC)cnn4C(C)C)nc32)cc1` [Example 45]: the IC50 was more than 500 nM.
Next, `COc1ncnc(C2CC2)c1-c1cc2n(n1)CCC(=O)N2Cc1ccc(-c2nc(C(F)(F)F)c[nH]2)cc1` [Example 69, 2-(4-cyclopropyl-6-methoxypyrimidin-5-yl)-4-(4-(4-(trifluoromethyl)-1H-imidazol-2-yl)benzyl)-6,7-dihydropyrazolo[1,5-α]pyrimidin-5(4H)-one]: 100 to 500 nM; `COc1ncnc(C2CC2)c1-c1cc2n(n1)CC(C)(C)C(=O)N2Cc1ccc(-c2nc(C(F)(F)F)cn2C)cc1` [Example 76, 2-(4-cyclopropyl-6-methoxypyrimidin-5-yl)-6,6-dimethyl-4-(4-(1-methyl-4-(trifluoromethyl)-1H-imidazol-2-yl)benzyl)-6,7-dihydropyrazolo[1,5-α]pyrimidin-5(4H)-one]: 100 to 500 nM.
In the case of `COc1ncnc(C2CC2)c1-c1cc2n(n1)CCC(=O)N2Cc1ccc(-c2nc(C(F)(F)F)cn2CCF)cc1` [Example 81], the IC50 was less than 100 nM.
Consider `CC(C)n1ncc(Cl)c1-c1cc2n(n1)CCC(=O)N2Cc1ccc(-c2nc(C(F)(F)F)cn2C)nc1` [Example 82], for which the IC50 fell in the range of 100 to 500 nM.
Next, `COc1ncnc(C2CC2)c1-c1cc2n(n1)CCC(=O)N2Cc1ccc(-c2nc(C(F)(F)F)cn2C)nc1` [Example 83]: more than 500 nM.
Take `CCn1nc(C(F)(F)F)nc1-c1ccc(CN2C(=O)CCn3nc(-c4c(Cl)cnn4C(C)C)cc32)cc1` [Example 84]: the IC50 was 100 to 500 nM.
Regarding `CCn1cc(C(F)(F)F)nc1-c1ccc(CN2C(=O)CCn3nc(-c4c(F)cnn4C(C)C)cc32)cc1` [Example 85], the IC50 fell in the range of 100 to 500 nM.
The value for `CCn1nc(C(F)(F)F)nc1-c1ccc(CN2C(=O)CCn3nc(-c4c(OC)ncnc4C4CC4)cc32)cc1` [Example 87] was more than 500 nM; that for `COc1ncnc(C2CC2)c1-c1cc2n(n1)CCC(=O)N2Cc1ccc(-n2nc(C)cc2C(F)(F)F)c(F)c1` [Example 88] was 100 to 500 nM.
As to `COc1cc(C(F)(F)F)nn1-c1ccc(CN2C(=O)CCn3nc(-c4c(Cl)cnn4C(C)C)cc32)cn1` [Example 89], the IC50 is less than 100 nM.
Consider `COc1ncnc(C2CC2)c1-c1cc2n(n1)CCC(=O)N2Cc1ccc(-c2nn(C)cc2C)cc1` [Example 90], for which the IC50 was more than 500 nM.
The value for `Cc1cc(C(F)(F)F)n(-c2ccc(CN3C(=O)CCn4nc(-c5c(Cl)cnn5C(C)C)cc43)cc2F)n1` [Example 92] was more than 500 nM; that for `COc1ncnc(C2CC2)c1-c1cc2n(n1)CCC(=O)N2Cc1ccc(-n2nc(C(F)(F)F)cc2OC)nc1` [Example 94] was 100 to 500 nM; that for `CC(C)n1ncc(Cl)c1-c1cc2n(n1)CCC(=O)N2Cc1ccc(-c2ccn(C)n2)cc1` [Example 95] was 100 to 500 nM.
The value for `COCc1cc(C(F)(F)F)nn1-c1ccc(CN2C(=O)CCn3nc(-c4c(OC)ncnc4C4CC4)cc32)cc1` [Example 99] was 100 to 500 nM.
As to `CC(C)n1ncc(Cl)c1-c1cc2n(n1)CCC(=O)N2Cc1ccc(-c2nc(C(F)(F)F)n(C)n2)cc1` [Example 101], the IC50 is 100 to 500 nM.
For `CC(C)n1ncc(Cl)c1-c1cc2n(n1)CCC(=O)N2Cc1ccc(-c2nc(C(F)(F)F)nn2C)cc1` [Example 102], the IC50 lay in the range of 100 to 500 nM.
Consider `CCn1cc(C(F)(F)F)nc1-c1ccc(CN2C(=O)CCn3nc(-c4c(OC)ncnc4C4CC4)cc32)cn1` [Example 105], for which the IC50 was 100 to 500 nM.
Consider `COc1ncnc(C2CC2)c1-c1cc2n(n1)CCC(=O)N2Cc1ccc(-n2nc(C#N)cc2OC)cc1` [Example 107], for which the IC50 lay in the range of 100 to 500 nM.
Turning to `CC(c1ccc(F)cc1)N1C(=O)CCn2nc(-c3c(Cl)cnn3C(C)C)cc21` (centres unmarked) [Example 110], the IC50 was in the range of 100 to 500 nM.
With `COc1ccnn1-c1ccc(CN2C(=O)CCn3nc(-c4c(Cl)cnn4C(C)C)cc32)cc1` [Example 117], the IC50 was in the range of 100 to 500 nM.
Next, `CCn1cc(C(F)(F)F)nc1-c1cc2c(cc1F)C(N1C(=O)CCn3nc(-c4c(Cl)cnn4C(C)C)cc31)CC2` (centres unmarked) [Example 121]: 100 to 500 nM; `CCn1cc(C)nc1-c1ccc(CN2C(=O)CCn3nc(-c4c(Cl)cnn4C(C)C)cc32)cc1` [Example 134]: 100 to 500 nM.
As to `CCn1cc(C(F)(F)F)nc1-c1ccc(CN2C(=O)CCn3nc(-c4c(OC)ncnc4C4CC4)cc32)cc1OC` [Example 136], the IC50 fell in the range of 100 to 500 nM.
Regarding `CCn1cc(C(F)(F)F)nc1-c1ccc(CN2C(=O)CCn3nc(-c4c(OC)ncnc4C4CC4)cc32)nc1` [Example 137], the IC50 lay in the range of 100 to 500 nM.
Regarding `COc1ncnc(C2(C)CC2)c1-c1cc2n(n1)CCC(=O)N2Cc1ccc(-c2nc(C(F)(F)F)cn2C)c(F)c1` [Example 149, 4-(3-fluoro-4-(1-methyl-4-(trifluoromethyl)-1H-imidazol-2-yl)benzyl)-2-(4-methoxy-6-(1-methylcyclopropyl)pyrimidin-5-yl)-6,7-dihydropyrazolo[1,5-α]pyrimidin-5(4H)-one], the IC50 was 100 to 500 nM.
With `CCn1cc(C(F)(F)F)nc1-c1ccc(CN2C(=O)CCn3nc(-c4c(Cl)cnn4C4CCOC4)cc32)cc1` (centres unmarked) [Example 150], the IC50 lay within 100 to 500 nM.
The value for `COc1cnn(C(C)C)c1-c1cc2n(n1)CCC(=O)N2Cc1ccc(-c2nc(C(F)(F)F)cn2C(C)C)cc1` [Example 152] was 100 to 500 nM.
As to `CCn1cc(C(F)(F)F)nc1-c1ccc(CN2C(=O)CCn3nc(-c4c(OC)cnn4C(C)C)cc32)cc1` [Example 155], the IC50 lay within 100 to 500 nM.
`CCn1cc(C(F)(F)F)nc1-c1ccc(CN2C(=O)CCn3nc(-c4c(C(C)(C)C)cnn4C)cc32)cc1` [Example 157]: the IC50 was 100 to 500 nM.
For the compound `CCn1cc(C(F)(F)F)nc1-c1ccc(CN2C(=O)CCn3nc(-c4c(C(C)C)cnn4C)cc32)cc1` [Example 158], the IC50 is more than 500 nM.
The value for `CCn1cc(C(F)(F)F)nc1-c1ccc(CN2C(=O)CCn3nc(-c4c(C5CC5)cnn4C(C)C)cc32)cc1` [Example 161] was 100 to 500 nM.
